One data set addresses T1, AHR (Homo sapiens, UniProt P35869).
T1 construct: other cell line with a DRE-luciferase reporter stably transfected; endogenous in cells; host or cells: Human HepG2 liver carcinoma AhR-Lucia reporter cells
T1 sequence (P35869 11-848): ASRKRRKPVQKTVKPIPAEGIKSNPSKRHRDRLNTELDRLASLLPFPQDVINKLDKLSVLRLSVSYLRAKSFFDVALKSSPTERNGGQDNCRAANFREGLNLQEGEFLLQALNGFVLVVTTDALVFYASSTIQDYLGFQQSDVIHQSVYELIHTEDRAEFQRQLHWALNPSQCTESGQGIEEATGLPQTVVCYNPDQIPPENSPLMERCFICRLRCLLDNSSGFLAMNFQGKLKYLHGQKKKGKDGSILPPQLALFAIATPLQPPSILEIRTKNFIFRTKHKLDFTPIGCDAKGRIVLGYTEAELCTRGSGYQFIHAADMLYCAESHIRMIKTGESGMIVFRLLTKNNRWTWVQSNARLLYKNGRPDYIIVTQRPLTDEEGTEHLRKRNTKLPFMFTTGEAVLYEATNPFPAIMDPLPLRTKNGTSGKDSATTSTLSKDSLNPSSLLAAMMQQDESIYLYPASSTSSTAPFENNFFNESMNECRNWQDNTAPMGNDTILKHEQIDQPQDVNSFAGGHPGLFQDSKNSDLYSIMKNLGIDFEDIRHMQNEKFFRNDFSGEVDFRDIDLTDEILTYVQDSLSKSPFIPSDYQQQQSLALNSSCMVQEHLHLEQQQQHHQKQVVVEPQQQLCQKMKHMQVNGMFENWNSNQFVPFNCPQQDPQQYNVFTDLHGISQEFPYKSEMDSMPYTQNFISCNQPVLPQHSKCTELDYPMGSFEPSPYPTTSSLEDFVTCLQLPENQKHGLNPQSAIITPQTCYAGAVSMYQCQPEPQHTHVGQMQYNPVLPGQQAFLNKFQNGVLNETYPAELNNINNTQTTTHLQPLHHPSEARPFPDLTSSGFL
Put plainly: DRE-Luciferase Reporter Assay (HepG2 AhR-Lucia reporter cells). The class given is cell-based. The settings on record: luciferase activity with AHR activating ligand at EC50, read-out: HepG2-Luc IC50. The source says:
AHR binds to Dioxin Responsive Elements (DRE) upstream of genes that it activates. One measure of AHR activity is activation of a reporter gene, such as luciferase, downstream of one or multiple DRE elements. Luciferase activity will reflect activation and inhibition of AHR in the cells expressing his reporter. 20000 Human HepG2 liver carcinoma—AhR-Lucia reporter cells or Human HT29 colon adenocarcinoma—AhR reporter cells or other cell line with a DRE-luciferase reporter stably transfected were plated in Eagle's Minimal Essential Medium, 10% heat-inactivated FBS, 1× non-essential amino acids Pen-Strep (10,000 U/mL) and Normocin (100 ug/mL) in plates (96-well, 384-well or other plates) and incubated overnight at 37° C. in a CO2 incubator and treated with and without AhR antagonists at a log dilution starting at 100 uM.
After 1 hr that cells were plated an AHR activating ligand, such as TCDD, kynurenine, ITE (2-(1H-indole-3-ylcarbonyl)-4-thiazolecarboxylic methyl ester), VAF347, BNF (beta-naphthoflavone), FICZ (6-formylindolo(3,2-b) carbazole) or other AHR ligands at their specific EC50 concentration, were added to the cells with or without AHR antagonist.
Cells were incubated for 24 or 48 hours or another time point and then, supernatant was analyzed for determination of luciferase activity as a read-out of the AHR activation or inhibition. Luciferase was measured with the commercial kit QUANTI-Luc™ assay solution kit from Invivogen following the manufacturer's instructions.
The level of luciferase with only agonist ligand added was the maximum signal while the luciferase with […] was the minimum signal. IC50 values were determined as the concentration which inhibits half of the luciferase activity.

A short description of data set [1]: Solubility Determination Assay (PBS, LC-MS/MS). The class given is physicochemical. The following applies: aqueous buffer, kinetic from dmso stock. How it is done: The stock solutions of test compounds and control compound progesterone were prepared in DMSO at the concentrations of 10 mM. 15 μL of stock solution (10 mM) of each sample was placed in order into their proper 96-well rack. 485 μL of PBS pH 1.6 and pH 7.4 were added into each vial of the cap-less Solubility Sample plate. The assay was performed in singlet. One stir stick was added to each vial and then the vial was sealed using a molded PTFE/Silicone plug. […] After completion of the 2 hours, plugs were removed and the stir sticks were removed using a big magnet. The samples from the Solubility Sample plate were transferred into the filter plate. Using the Vacuum Manifold, all the samples were filtered. An aliquot of 5 μL was taken from the filtrate followed by addition of 495 μL of a mixture of H2O and acetonitrile containing internal standard (1:1). A certain proportion of ultrapure water was used to dilute the diluent according to the peak shape. The dilution factor was changed according to the solubility values and the LC-MS signal response.
From the 10 mM DMSO STD plate, 6 μL was transferred into the remaining empty plate, and then 194 μL of DMSO were added to that plate to have a STD concentration of 300 μM. From the 300 μM DMSO STD plate, 5 μL were transferred into the remaining empty plate, and then 495 μL of a mixture of H2O and acetonitrile containing internal standard (1:1) were added to that plate to have a final STD concentration of 3 μM. A certain proportion of ultrapure water was used to dilute the diluent according to the peak shape. The concentrations of the standard samples were changed according to the LC-MS signal response.
The plate was placed into the well plate autosampler. The samples were evaluated by LC-MS/MS analysis.
All calculations were carried out using Microsoft Excel.
The filtrate was analyzed and quantified against a standard of known concentration using LC coupled with mass spectral peak identification and quantitation. Solubility values of the test compound and control compound were calculated as follows: […]
Any value of the compounds that was not within the specified limits was rejected and the experiment was repeated.
“+++” indicates a solubility value equal to or greater than 10 μM, “++” indicates a solubility value between 1 and 10 μM, and “+” indicates a solubility value less than 1 μM.

The nature of data set [2]: Liver Microsome Stability Assay, human. It counts as in vitro ADME. The settings on record: human liver microsomes, with NADPH, 1 μM compound, read-out: Human liver microsome clearance. How it is done: The master solution was prepared according to Table 6.
Two separate experiments were performed as follows.
With Cofactors (NADPH): 25 μL of 10 mM NADPH was added to the incubations. The final concentrations of microsomes and NADPH were 0.5 mg/mL and 1 mM, respectively. The final concentration of microsomes was 0.5 mg/mL. The mixture was pre-warmed at 37° C. for 10 minutes. The reaction was started with the addition of 2.5 μL of 100 μM control compound or test compound solutions. Verapamil was used as positive control in this study. The final concentration of test compound or control compound was 1 μM. The incubation solution was incubated in water batch at 37° C. Aliquots of 25 μL were taken from the reaction solution at 0.5, 5, 15, 30 and 60 minutes. The reaction was stopped by the addition of 5 volumes of cold acetonitrile with IS (200 nM caffeine and 100 nM tolbutamide). Samples were centrifuged at 3, 220 g for 40 minutes. Aliquot of 100 μL of the supernatant was mixed with 100 μL of ultra-pure H2O and then used for LC-MS/MS analysis.
Data Analysis: All calculations were carried out using Microsoft Excel. Peak areas were determined from extracted ion chromatograms. The slope value, k, was determined by linear regression of the natural logarithm of the remaining percentage of the parent drug vs. incubation time curve.
The in vitro half-life (in vitro t1/2) was determined from the slope value: in vitro t1/2=−([…]/k)
Conversion of the in vitro t1/2 (min) into the in vitro intrinsic clearance (in vitro CLint, in μL/min/mg protein) was done using the following equation (mean of duplicate determinations):
The calculations of Scaled-up CLint (mL/min/kg), Predicted CLH (mL/min/kg) and EH were done using the following equation: Scaled-up CLint=(0.693/t1/2)×(1/(microsomal protein concentration(0.5 mg/mL)))×Scaling Factors; Predicted CLH=(QH×Scaled-up CLint×fub)/(QH+Scaled-up CLint×fub); EH=Predicted CLH/QH • where QH is the hepatic blood flow (mL/min/kg) (Table 7), • fub is the fraction of unbound drug in plasma which is assumed to be 1. […]
(In general: Liver microsomes are a subcellular fraction often used to study metabolism.)

Setting [3] is: PBS pH 1.6, 25° C., read-out: Aq. Solubility at pH = 1.6.
Setting [4] is: PBS pH 7.4, 25° C., read-out: Aq. Solubility at pH = 7.4.

Here are results for 4 molecules from US12570638B2, “Fused imidazole derivatives as AHR antagonists” (Sail Biomedicines, Inc., priority 2020, dated 2026).

In brackets after ≈: the same amount, converted by molar mass. Like-named read-outs stand apart in the source and are kept apart here.

Broadly, the IC50 is the concentration that gives 50% inhibition. By solubility is commonly meant the concentration that dissolves in the medium under given conditions.

Turning to `Cc1ccccc1-c1nc2ccc(NC(=O)c3ccnn3C)cc2[nH]1` [B, 1-methyl-N-(2-(o-tolyl)-1H-benzo[d]imidazol-6-yl)-1H-pyrazole-5-carboxamide], at AHR, the IC50 is 100 to 500 nM.
On to `Cn1nccc1C(=O)Nc1ccc2nc(-c3ccccc3C(F)F)[nH]c2c1` [Compound C, N-(2-(2-(difluoromethyl)phenyl)-1H-benzo[d]imidazol-6-yl)-1-methyl-1H-pyrazole-5-carboxamide], for which, at AHR, the IC50 fell in the range of 100 to 500 nM. Further, the solubility at 2 h was more than 10 µM in data set [1] (setting [3]) and 1 to 10 µM (≈ 0.367 to 3.67 µg/mL) in data set [1] (setting [4]). For the same molecule, the CLint scaled at 1 μM in data set [2] is less than 10 mL/min/kg.
In the case of `Cn1ncnc1C(=O)Nc1ccc2nc(-c3ccccc3C(F)F)[nH]c2c1` [D, N-(2-(2-(difluoromethyl)phenyl)-1H-benzo[d]imidazol-6-yl)-1-methyl-1H-1,2,4-triazole-5-carboxamide], the concentration for half-maximal inhibition (IC50) at AHR is less than 100 nM. Further, the values for the solubility at 2 h in data set [1] (setting [3]) and in data set [1] (setting [4]) were more than 10 µM and 1 to 10 µM (≈ 0.368 to 3.68 µg/mL), respectively.
For the molecule `Cc1ccccc1-c1nc2ccc(NC(=O)c3ncnn3C)cc2[nH]1` [G, 1-methyl-N-(2-(o-tolyl)-1H-benzo[d]imidazol-6-yl)-1H-1,2,4-triazole-5-carboxamide], the IC50 on AHR is 100 to 500 nM.
